This note sets out measurements from publication PMC6773697, “Antileukemic activity of novel adenosine derivatives” (Scientific Reports, 2019).

Holding throughout (type): cell-based, human
Assay [1] relates to intracellular calcium in THP-1 cells. The assay is described as follows: Intracellular calcium assay (Fluo-4 NW), THP-1. The note with it: THP-1, 2 h incubation. As for the experimental part: Intracellular calcium levels were determined using the fluorescent probe Fluo-4 NW. The cells were plated in 96-well black plates (15 × 10^3 cells/well) and treated with cladribine and the new derivatives. Incubation with drugs was performed for different times (2–48 h). The medium was then removed, and the cells were washed with phosphate buffered saline (PBS)[35],[36]. Finally, a dye loading solution (Fluo-4 NW dye, probenecid, assay buffer—1xHBSS, 20 mM HEPES; 100 μL per well) was processed according to the Fluo-4 NW Calcium Assay Kit protocol (Molecular Probes) and incubated for 30 min in the dark at 37 °C, and then for another 30 min at the room temperature. The measurements were calculated on a fluorescence plate reader for excitation at 494 nm and emission at 516 nm. To avoid errors in the measurement of fluorescence intensity, caused by feasible cell detachment and resulting decrease in the cell number in the samples due to the drug treatment, DNA content was estimated as well.[37] After the measurement of intracellular calcium fluorescence, the probes were centrifuged at 300xg, 10 min. […] Then 100 μl of 5 μM of propidium iodide (PI) was added, the plate was immediately shaken, incubated for 15 min at room temperature in the dark and the fluorescence was read at 350/620 nm with a Fluoroskan Ascent FL microplate reader (Labsystems, Sweden).
(In general: Calcium flux is commonly read through the fluorescence of an indicator in the cells.)

Assay [2] deals with HL-60 cells. The experiment in a line: Comet assay with proteinase K post-treatment (DNA-protein cross-links), HL-60. The note with it: for DNA damage after proteinase K: HL-60, 24 h. As for the experimental part:
(§1) Single cell gel electrophoresis (comet assay) was used to detect alkali labile sites, single and double DNA strand breaks, and cross-links induced by genotoxic agents. After electrophoresis and gel staining with 4,6-diamidino-2-phenylindole (DAPI), the released DNA was visible under a fluorescence microscope as a characteristic comet tail. The cells were plated on 24-well plates (20,000 cells/mL) and treated with CLA, CLA-FMOR, CLA-FPIP, or CLA-FPIR at the indicated concentrations for 2, 24, and 48 h at 37 °C. Some cells were preincubated with an ATR kinase inhibitor (VE-821) for 1 h at 37 °C before adding the tested compounds. Next, cells were collected into Eppendorf tubes and rinsed with PBS. Then, cells were suspended in 0.75% low melting point (LMP) agarose dissolved in PBS (pH 7.4) and placed on microscope slides precoated with 0.5% normal melting point (NMP) agarose. Subsequently, the slides were treated with a cooled lysis buffer (2.5 M NaCl, 100 mM EDTA, 10 mM Tris, 1% Triton X-100, pH 9.0) for 1–24 h at 4 °C. Then, slides were placed in developing buffer (300 mM NaOH, 1 mM EDTA) for 20 min. Electrophoresis was performed in TAE buffer (30 mM NaOH, 1 mM EDTA) at 29 V and 30 mA for 20 min. The samples were stained with DAPI (1 g/ml). The slides were stored in a wet chamber at 4 °C and analyzed under a fluorescence microscope. Fifty randomly selected cells from each slide were measured using image analysis (Nikon, Japan) attached to a COHU 4910 video camera, which was equipped with a UV-1 filter block consisting of an excitation filter (359 nm) and a barrier filter (461 nm) connected to the image analysis system Lucia-Comet v. 4.51 (Czech Republic)[41]. In the samples preincubated with VE-821, the level of DNA damage associated with the ATR kinase was determined.
Because cross-links can be undetectable in the alkaline comet assay, a variant of this method including post-treatment with proteinase K (Cat no: P2308) was used. Proteinase K digests peptide bonds, releasing the cross-linked DNA […] the DNA-protein complexes without altering the structure of the DNA-DNA complexes to distinguish them. After lysis, the slides were washed three times in TE buffer (10 mM Tris, pH 10, 1 mM EDTA). The cells were treated with aliquots of proteinase K (60 µL per slide; 1 mg/mL TE buffer) for 1 h at 37 °C in a wet chamber. Further steps of the comet assay were performed as described above.

Assay [3] concerns THP-1 cells. The assay is described as follows: Comet assay with proteinase K post-treatment (DNA-protein cross-links), THP-1. Here is the method:
as §1
Because cross-links can be undetectable in the alkaline comet assay, a variant of this method including post-treatment with proteinase K (Cat no: P2308) was used. […]

In assay [4] the test system is γH2AX in HL-60 cells. The experiment in a line: H2AX (phospho S139) In-Cell ELISA, HL-60. The following applies: HL-60, 48 h, versus control cells. As for the experimental part:
The level H2AX protein phosphorylated Ser139 was measured in tested leukemia cells by using of In-Cell ELISA, ICE assay kit. The cells were seeded on 96-well plates (100 × 10^3/well) and 48 h later, incubated with the appropriate compounds. In some experimental variants, cells were preincubated for 1 h with VE-821 (10 µM). The cells were fixed by adding a final concentration of 4% paraformaldehyde solution (10 min, room temperature). After 2 h of Block Solution incubation, cells were treated with a highly specific antibody. A rabbit monoclonal antibody specific to H2AX (phospho S139) was used (at 1:100, 2 h incubation). Next Secondary Antibody Solution (at 1:1000) were added to the cells. The measurements were obtained on a fluorescence plate reader at an excitation wavelength of 680 nm and emission at 694 nm. The cells were PBS washed and 100 µL of Janus Green Stain was added to each well of the plate (5 min., room temperature). The data were collected at excitation wavelength of 750 nm and emission at 800 nm channel (Fluoroskan Cary Eclipse). Antibody signal intensity was normalized to the total amount using Janus Green cell-stain.
(In general: An ELISA detects its analyte on a solid surface through an enzyme-linked reagent.)

Assay [5] deals with MOLT-4 cells. The assay is described as follows: Comet assay with proteinase K post-treatment (DNA-protein cross-links), MOLT-4. The following applies: MOLT-4, 24 h. As for the experimental part: as §1, with “Subsequently, the slides were treated with a cooled lysis buffer (2.5 M NaCl, 100 mM EDTA, 10 mM Tris, 1% Triton X-100, pH 9.0) for 1–24 h at 4 °C. Then, slides were placed in developing buffer (300 mM NaOH, 1 mM EDTA) for 20 min. Electrophoresis was performed in TAE buffer (30 mM NaOH, 1 mM EDTA) at 29 V and 30 mA for 20 min. The samples were stained with DAPI (1 g/ml).” left out, “4.51 (Czech Republic)[41].” left out, “determined. […]” for “determined.”

SMILES strings stand for the structures.

For the molecule `OC[C@H]1O[C@@H](n2cnc3c(N=CN4CCCC4)nc(Cl)nc32)C[C@@H]1O` [CLA-FPIR, [6-deamino-6-(N′, N′-l′, 4′-tetramethyleneformamidino)] cladribine], the “intracellular calcium ion concentration” value in assay [1] was “highest intracellular calcium ion concentration”. In assay [2], the “DNA damage after proteinase K” value was “increased the DNA damage”. Further, in assay [3] (THP-1, 24 h), the “DNA damage in the tail after proteinase K” value was “increased”.
`OC[C@H]1O[C@@H](n2cnc3c(N=CN4CCOCC4)nc(Cl)nc32)C[C@@H]1O` [CLA-FMOR, [6-deamino-6-(N′, N′-3′-oxa-1′, 5′-pentamethyleneformamidine)] cladribine]: the “increase in γH2AX level” value in assay [4] is reported as ~ 2.4 fold. Besides, the “intracellular calcium ion concentration” value in assay [1] is listed as “highest intracellular calcium ion concentration”. Further, the “DNA damage after proteinase K” value in assay [2] is “increased the DNA damage”. Also, in assay [2] (HL-60, starting at 2 h of incubation), the “DNA-protein cross-links after proteinase K” value is given as “increased the level of cross-links”. Also, the “percentage of DNA in the comet tail after proteinase K” value in assay [5] was “increase in the percentage of DNA in the comet tail”. The “DNA damage in the tail after proteinase K” value in assay [3] (THP-1, 2–48 h) is “increased”.
